What was measured:
[1] = set-up: species or system Sprague-Dawley rat; conditions: rat, in vivo, iv
[2] = biological target: bovine serum albumin (Bos taurus, UniProt P02769); assay: Serum protein binding by gel filtration chromatography; type: in vitro ADME; conditions: GFC after incubation in bovine serum albumin solution at 37°C for 4 h
[3] = in serum; cited from earlier work
[4] = conventional NIR fluorophores; cited from earlier work
[5] = Stability in warm serum, 24 h, 37°C; type: in vitro ADME; conditions: 100% serum, pH 7.4, 24 h
[6] = Optical properties of NIR fluorophores in 100% serum, pH 7.4; type: physicochemical

Sequence of bovine serum albumin (P02769 25-607): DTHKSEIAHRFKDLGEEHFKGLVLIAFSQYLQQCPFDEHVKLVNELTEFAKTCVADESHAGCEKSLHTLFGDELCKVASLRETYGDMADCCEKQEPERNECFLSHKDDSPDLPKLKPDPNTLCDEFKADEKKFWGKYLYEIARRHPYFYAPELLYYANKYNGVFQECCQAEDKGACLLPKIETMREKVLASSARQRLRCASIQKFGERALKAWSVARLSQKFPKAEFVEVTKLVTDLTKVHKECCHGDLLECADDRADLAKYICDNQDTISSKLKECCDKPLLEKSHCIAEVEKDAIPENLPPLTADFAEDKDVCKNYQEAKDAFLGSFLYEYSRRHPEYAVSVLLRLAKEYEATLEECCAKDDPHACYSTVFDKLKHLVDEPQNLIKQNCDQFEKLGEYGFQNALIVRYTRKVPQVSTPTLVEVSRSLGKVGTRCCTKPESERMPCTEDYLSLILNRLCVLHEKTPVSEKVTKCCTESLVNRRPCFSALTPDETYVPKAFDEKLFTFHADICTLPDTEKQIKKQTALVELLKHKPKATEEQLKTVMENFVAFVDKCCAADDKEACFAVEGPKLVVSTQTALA

SMILES	clearance route seen by dual-channel imaging [1]	Serum protein binding [2]	molar extinction coefficient (ε) [3]	quantum yield (QY) [3] [%]	LogD at pH 7.4 [4]	Stability (%) at 24 h, 37°C [5] [%]	Absorbance Maximum [6] [nm]	Emission Maximum [6] [nm]	Extinction Coefficient [6]	Quantum Yield [6] [%]	Stokes Shift [6] [nm]
CC1(C)C(/C=C/C=C/C=C/C=C2\N(CCCCS(=O)(=O)[O-])c3ccc4ccccc4c3C2(C)C)=[N+](CCCCS(=O)(=O)[O-])c2ccc3ccccc3c21.[Na+] [ICG]	extracted from blood by the liver and excreted into bile	significant serum protein binding	121,000 M^−1cm^−1	9.3							
CC1(C)C(=CC=C2CCCC(C=CC3=[N+](CCCCCC(=O)[O-])c4ccc(S(=O)(=O)[O-])cc4C3(C)C)=C2Oc2ccc(S(=O)(=O)[O-])cc2)N(CCCCS(=O)(=O)[O-])c2ccc(S(=O)(=O)[O-])cc21.[Na+].[Na+].[Na+].[Na+] [IRDye 800CW]					2.51						
CN(C)c1ccc2nc3ccc(=[N+](C)C)cc-3sc2c1 [Methylene Blue]						99	665	685	71,200 M^−1cm^−1	3.8	20
CC1(C)C(/C=C/C(=C/C=C2/N(CCC[N+](C)(C)C)c3ccc(S(=O)(=O)[O-])cc3C2(C)C)c2ccc(CCC(=O)[O-])cc2)=[N+](CCC[N+](C)(C)C)c2ccc(S(=O)(=O)[O-])cc21 [ZW700-1c]						99	646	663	199,000 M^−1cm^−1	19.5	17

Source: publication PMC4684479 (Molecular imaging and biology : MIB : the official …, 2016)
